Read-outs that look alike come from different tables or passages of the source. Where only a bound is given, the exact number is not on record here.

Data set [1] has as its target T1, Aβ1-42 aggregates (Homo sapiens, UniProt P05067).
T1 construct: Preparing receptor Aβ1-42 proteins according to the existing method
The data set is described as follows: In-vitro competitive binding experiments (Ki determination) with Aβ1-42 aggregates. As to conditions: for affinity with the Aβ1-42 aggregates compared with IMPY and PIB: competitive binding experiments. As for the experimental part:
Binding reaction occurs between Aβ1-42 aggregate proteins with certain concentration and radioactive ligands [^125I] […] 4, the compounds are separated after balancing, and the inhibition constant (Ki) is calculated by determining radioactivity.
(1) Preparing 4 l of PBS (0.2M) buffer solution with pH=7.4;
(2) Preparing radioligand [^125]
(3) Preparing the compounds to be determined into 10^−3 to 10^−9 mol/L continuously diluted ethanol solution;
(4) Preparing receptor Aβ1-42 proteins according to the existing method and diluting the proteins into 30 nM water solution;
(5) Soaking a glass fiber filter membrane in PBS solution containing 0.1% (volume fraction) polyethyleneimine for 0.5 h;
(6) Respectively adding 100 μl of solution of compounds with different concentration and to be determined, 100 μl of [^125I]
(7) Oscillating and incubating for 2 h in 37° C. constant-temperature water bath;
(8) Collecting reaction liquid by using a multi-head cell collector, and washing the reaction liquid for three times by using PBS, 3 ml per time;
(9) Measuring and counting by using a γ counter; and […]

A short description of data set [2]: Biological distribution in bodies of normal mice. Format: in vivo, mice (ICR). To be noted: caudal vein injection. The text has this:
Through in-vivo distribution experiments, pharmacokinetic features, especially initial bran intake and brain removal situations of ^18F or ^125I labeled compounds in the bodies of mice are studied. […] Data are expressed in radioactive percentage dosage per organ (% ID/organ) and radioactive percentage dosage per gram of organ (% ID/g).

Data set [3] is described as follows: logD of labeled ligands. Format: physicochemical.
Setting [4] is: competition against radioligand [^125I] IMPY, Aβ1-42 aggregates, 37° C., 2 h.

T1 sequence (P05067 672-713 limits assumed): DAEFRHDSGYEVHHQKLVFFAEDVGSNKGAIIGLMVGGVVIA

Consider `Fc1ccc(OCc2ccc(I)cc2)cc1` [Compound 10, 1-fluoro-4-(4-iodobenzyloxy) benzene], for which the affinity in data set [1] corresponds to a Ki of 127 ± 18.2 nM.
Same read-out and setting: then `CNc1ccc(OCc2ccc(I)cc2)cc1` [Compound 19, 4-(4-iodobenzyloxy)-N-methylaniline], with 57 ± 5.1 nM; and `COc1ccc(SCc2ccc(I)cc2)cc1` [Compound 25, (4-iodobenzyl) (4-methoxyphenyl) sulfane], with 627 ± 129 nM; and `CN(C)c1ccc(CNc2ccc(I)cc2)cc1` [Compound 67, 4-(((4-iodophenyl)amino)methyl)-N,N-dimethylaniline], with 124 ± 14.3 nM.
Consider `COc1ccc(OCc2ccc(I)cc2)cc1` [Compound 4, 1-iodo-4-((4-methoxyphenoxy)methyl) benzene], for which, in data set [1], the Ki (as a rule, a dissociation constant, usually derived from enzyme kinetics or from competition with a known ligand) worked out at 28.7 ± 8 nM; the “affinity with the Aβ1-42 aggregates compared with IMPY and PIB” value (shortened to “affinity … compared with IMPY and PIB”) was “higher than that of the known compounds IMPY and PIB”.
Turning to `COc1ccc(OCc2ccc([125I])cc2)cc1` [[^125I]4], the Blood in data set [2] (2 min) is reported as 3.03 ± 0.54 % ID/g; in data set [2] (10 min) it was 3.32 ± 0.65 % ID/g; in data set [2] (30 min), 2.56 ± 0.93 % ID/g; in data set [2] (60 min) it was 1.70 ± 0.50 % ID/g. Moreover, the Brain came to 6.18 ± 0.99 % ID/g in data set [2] (2 min), 3.54 ± 0.35 % ID/g in data set [2] (10 min), 0.88 ± 0.15 % ID/g in data set [2] (30 min) and 0.38 ± 0.05 % ID/g in data set [2] (60 min). The Thyroid in data set [2] (2 min) amounted to 0.14 ± 0.04 % ID/organ; in data set [2] (10 min) it was 0.12 ± 0.04 % ID/organ; in data set [2] (30 min), 0.08 ± 0.01 % ID/organ; in data set [2] (60 min), 0.11 ± 0.02 % ID/organ. The logD entry in data set [3] is “[^125I]4 (logD = 4.00 ± 0.08)”.
As for `CN(C)c1ccc(OCc2ccc([125I])cc2)cc1` [[^125I]22], the Blood in data set [2] (2 min) is reported as 4.01 ± 0.28 % ID/g; in data set [2] (10 min), 2.46 ± 0.30 % ID/g; in data set [2] (30 min) it was 2.53 ± 0.27 % ID/g; in data set [2] (60 min) it was 1.34 ± 0.26 % ID/g. Besides, the Brain in data set [2] (2 min) was 4.91 ± 0.60 % ID/g; in data set [2] (10 min), 3.26 ± 0.24 % ID/g; in data set [2] (30 min), 1.34 ± 0.12 % ID/g; in data set [2] (60 min) it was 0.49 ± 0.07 % ID/g. Further, the Thyroid is 0.11 ± 0.03 % ID/organ in data set [2] (2 min), 0.12 ± 0.03 % ID/organ in data set [2] (10 min), 0.16 ± 0.04 % ID/organ in data set [2] (30 min) and 0.27 ± 0.04 % ID/organ in data set [2] (60 min). In addition, the logD result in data set [3] was “[^125I]22 (logD = 2.89 ± 0.09)”.
In turn, `FCCOc1ccc(COc2cccnc2I)cc1` [Compound 65] registered a Ki in data set [1] (setting [4]) of 2080 ± 458 nM.
In data set [1], `Oc1ccc(OCc2ccc(I)cc2)cc1` [Compound 7, 4-(4-iodobenzyloxy) phenol] gave a Ki of 134 ± 28.1 nM.
The same measure, in the same setting: the figure for `Oc1ccccc1OCc1ccc(I)cc1` [Compound 9, 2-(4-iodobenzyloxy) phenol] is 3350 ± 611 nM; for `Ic1ccc(COc2ccccc2)cc1` [Compound 14, 1-iodo-4-(phenoxymethyl) benzene] it is 93.9 ± 6.1 nM; for `Nc1cccc(OCc2ccc(I)cc2)c1` [Compound 17, 3-(4-iodobenzyloxy) aniline] it is 1810 ± 189 nM.
For the compound `Clc1ccc(OCc2ccc(I)cc2)cc1` [Compound 11, 1-chloro-4-(4-iodobenzyloxy) benzene], in data set [1], affinity was put at a Ki of 22.3 ± 2.6 nM; the “affinity … compared with IMPY and PIB” value is “higher than that of the known compounds IMPY and PIB”.
In the case of `COc1ccc(COc2ccc(OCC[18F])cc2)cc1` [[^18F] 53a], the Blood in data set [2] (2 min) came out at 4.26 ± 0.41 % ID/g; in data set [2] (10 min), 4.61 ± 0.95 % ID/g; in data set [2] (30 min), 3.76 ± 0.19 % ID/g; in data set [2] (60 min), 3.05 ± 1.09 % ID/g. For the same compound, the Bone was found to be 2.37 ± 0.69 % ID/organ in data set [2] (2 min), 2.76 ± 0.47 % ID/organ in data set [2] (10 min), 4.02 ± 0.78 % ID/organ in data set [2] (30 min) and 5.89 ± 0.49 % ID/organ in data set [2] (60 min). The Brain in data set [2] (2 min) was 9.95 ± 2.36 % ID/g; in data set [2] (10 min), 2.77 ± 0.19 % ID/g; in data set [2] (30 min), 1.44 ± 0.18 % ID/g; in data set [2] (60 min) it was 1.30 ± 0.16 % ID/g. Also, the logD entry in data set [3] was “[^18F] 53a (logD = 3.65 ± 0.04)”.
In data set [1], `COc1ccc(OCc2ccc(OCCF)cc2)cc1` [Compound 44a, 1-(2-fluoroethoxy)-4-((4-methoxyphenoxy)methyl) benzene] displayed a Ki of 167 ± 34.5 nM.
`CN(C)c1ccc(-c2cn3cc([125I])ccc3n2)cc1` [[^125I]IMPY, reference compound]: the Blood in data set [2] (2 min) is 3.85 ± 0.53 % ID/g; in data set [2] (10 min), 2.81 ± 0.33 % ID/g; in data set [2] (30 min) it was 1.50 ± 0.20 % ID/g; in data set [2] (60 min) it was 1.03 ± 0.10 % ID/g. The Brain in data set [2] (2 min) is listed as 5.05 ± 0.38 % ID/g; in data set [2] (10 min), 1.80 ± 0.12 % ID/g; in data set [2] (30 min), 0.67 ± 0.15 % ID/g; in data set [2] (60 min), 0.45 ± 0.07 % ID/g. Besides, the Thyroid in data set [2] (2 min) is 0.12 ± 0.05 % ID/organ; in data set [2] (10 min), 0.09 ± 0.03 % ID/organ; in data set [2] (30 min) it was 0.22 ± 0.08 % ID/organ; in data set [2] (60 min) it was 0.30 ± 0.09 % ID/organ.
`CNc1ccc(OCc2ccc(OCCF)cc2)cc1` [Compound 46, 4-(4-(2-fluoroethoxy)benzyloxy)-N-methylaniline] returned a Ki in data set [1] of 460 ± 82 nM.
With `Brc1ccc(OCc2ccc(I)cc2)cc1` [Compound 12, 1-bromo-4-(4-iodobenzyloxy) benzene], in data set [1], affinity was put at a Ki of 14.1 ± 1.2 nM; the “affinity … compared with IMPY and PIB” value is “higher than that of the known compounds IMPY and PIB”.
Turning to `COc1ccc(COc2ccc(I)cc2)cc1` [Compound 24, 1-iodo-4-(4-methoxybenzyloxy) benzene], the Ki in data set [1] amounted to 58.5 ± 3.5 nM.
Still for that read-out and setting: the figure for `CN(C)c1cccc(OCc2ccc(I)cc2)c1` [Compound 23, 3-(4-iodobenzyloxy)-N,N-dimethylaniline] is 1060 ± 104 nM; for `Nc1ccc(OCc2ccc(I)cc2)cc1` [Compound 16, 4-(4-iodobenzyloxy) aniline] it is 484 ± 53.2 nM.
Turning to `COc1cccc(OCc2ccc(I)cc2)c1` [Compound 5, 1-(4-iodobenzyloxy)-3-methoxybenzene], the Ki in data set [1] amounted to 154 ± 5.6 nM.
For the compound `FCCOc1ccc(OCc2ccc(I)cc2)cc1` [Compound 31a, 1-(2-fluoroethoxy)-4-((4-iodobenzyl)oxy) benzene], in data set [1], the inhibition constant Ki was determined as 24.1 ± 8.8 nM; the “affinity … compared with IMPY and PIB” value is “higher than that of the known compounds IMPY and PIB”.
`CN(C)c1ccc(OCc2ccc(OCCF)cc2)cc1` [Compound 47, 4-(4-(2-fluoroethoxy)benzyloxy)-N,N-dimethylaniline]: in data set [1], the Ki is 23 ± 5.3 nM; the “affinity … compared with IMPY and PIB” value was “higher than that of the known compounds IMPY and PIB”.
`CC(C)(C)c1ccc(OCc2ccc(I)cc2)cc1` [Compound 15, 1-tert-butyl-4-(4-iodobenzyloxy) benzene] registered a Ki in data set [1] of 139 ± 20.9 nM.
Consider `Ic1ccc(COc2ccc(I)cc2)cc1` [Compound 13, 1-iodo-4-(4-iodobenzyloxy) benzene], for which, in data set [1], affinity was put at a Ki of 25.9 ± 2.4 nM; the “affinity … compared with IMPY and PIB” value was “higher than that of the known compounds IMPY and PIB”.
In data set [1], `CNc1cccc(OCc2ccc(I)cc2)c1` [Compound 20, 3-(4-iodobenzyloxy)-N-methylaniline] displayed a Ki of 702 ± 92.4 nM.
The same measure, in the same setting: then `COc1ccc(COc2ccc(OCCF)cc2)cc1` [Compound 53a, 1-(2-fluoroethoxy)-4-(4 methoxybenzyloxy) benzene], with 465 ± 18.8 nM.
On the same count and under the same terms, the figure for `Oc1cccc(OCc2ccc(I)cc2)c1` [Compound 8, 3-(4-iodobenzyloxy) phenol] is 456 ± 135 nM; for `Nc1ccccc1OCc1ccc(I)cc1` [Compound 18, 2-(4-iodobenzyloxy) aniline] it is 1220 ± 58 nM.
With `CN(C)c1ccc(OCc2ccc(I)cc2)cc1` [Compound 22, 4-(4-iodobenzyloxy)-N,N-dimethylaniline], in data set [1], affinity was put at a Ki of 20.9 ± 1.8 nM; the “affinity … compared with IMPY and PIB” value is “higher than that of the known compounds IMPY and PIB”.
On to `O=c1ccc(I)cn1Cc1ccc(I)cc1` [Compound 58], for which, in data set [1] (setting [4]), the Ki is 1060 nM.
Regarding `CNc1ccccc1OCc1ccc(I)cc1` [Compound 21, 2-(4-iodobenzyloxy)-N-methylaniline], the Ki in data set [1] was more than 20000 nM.
Consider `FCCOc1ccc(COc2ccc(I)cc2)cc1` [Compound 35a, 1-(2-fluoroethoxy)-4-((4-iodophenoxy)methyl) benzene], for which, in data set [1], the Ki was determined as 23 ± 3.3 nM; the “affinity … compared with IMPY and PIB” value was “higher than that of the known compounds IMPY and PIB”.
For `COc1ccccc1OCc1ccc(I)cc1` [Compound 6, 1-(4-iodobenzyloxy)-2-methoxybenzene], the affinity in data set [1], expressed as Ki, was 6110 ± 458 nM.

The values are drawn from patent US20170037008A1, “PHENYL BENZYL ETHER DERIVATIVE AND PREPARATION METHOD AND APPLICATION THEREOF” (BEIJING ZHIBO BIO-MEDICAL TECHNOLOGY CO., LTD, priority 2013, published 2017).
